Measurements: ChEMBL document CHEMBL1156451 (J Biol Chem, 2007)
Values after ≈ are worked out from the molar mass of the structure shown. Active and inactive are the calls of the source. The calls are words filed in the database; no cut-off is given here. Where a SMILES comes first, the peptide text is derived from it.

Legend:
HeLa [1] = assay: Cytotoxicity against human HeLa cells at 100 ug/ml after 24 hrs by MTT assay relative to control; type: functional
HeLa [2] = assay: Cytotoxicity against human HeLa cells at 100 ug/ml after 24 hrs by neutral red uptake assay relative to control; type: functional
[3] = Toxicity in human erythrocytes assessed as hemolysis; type: cell-based; conditions: erythrocyte
Escherichia coli [4] = assay: Antibacterial activity against Escherichia coli ATCC 25922 after 24 hrs in Mueller-Hinton broth medium; type: functional; conditions: ATCC 25922, 24 h
Acinetobacter baumannii = assay: Antibacterial activity against Acinetobacter baumannii ATCC 19606 after 24 hrs in Mueller-Hinton broth medium; type: functional; conditions: ATCC 19606, 24 h
[5] = test system: Bordetella bronchiseptica; assay: Antibacterial activity against Bordetella bronchiseptica CUN 11844-99 after 24 hrs in Mueller-Hinton broth medium; type: functional
Brucella abortus [6] = assay: Antibacterial activity against Brucella abortus 9.49 (per-) after 48 hrs in Mueller-Hinton broth medium; type: functional
Pseudomonas aeruginosa = assay: Antibacterial activity against Pseudomonas aeruginosa CUN 4158-02 after 24 hrs in Mueller-Hinton broth medium; type: functional
Staphylococcus aureus = assay: Antibacterial activity against methicillin-resistant Staphylococcus aureus ATCC 43300 after 24 hrs in Mueller-Hinton broth medium; type: functional; conditions: ATCC 43300, 24 h
Brucella abortus [7] = assay: Antibacterial activity against Brucella abortus 9.19 (per-) after 24 hrs in Mueller-Hinton broth medium; type: functional
Escherichia coli [8] = assay: Antibacterial activity against Escherichia coli K12 ATCC 23716 after 24 hrs in Mueller-Hinton broth medium; type: functional; conditions: K12, 24 h
Escherichia coli [9] = assay: Antibacterial activity against Escherichia coli K12 ATCC 23716 in 10% Luria-Bertani medium/90% Hepes buffer at pH 7.0; type: functional
Escherichia coli [10] = assay: Effect on morphology in Escherichia coli K12 ATCC 23716 assessed as formation of high electrodense clusters at 20 uM after 30 mins by transmission electron microscopy; type: functional, organism-based
Escherichia coli [11] = assay: Effect on morphology in Escherichia coli K12 ATCC 23716 assessed as detachment of outer membrane from inner membrane at 4 uM after 30 mins by transmission electron microscopy; type: functional, organism-based

Row | Structure (SMILES) | Activity (HeLa [1]) [%] | Activity (HeLa [2]) [%] | Activity [3] | MBC (Escherichia coli [4]) [µg/mL] | MIC (Escherichia coli [4]) [µg/mL] | MBC (Acinetobacter baumannii) [µg/mL] | MIC (Acinetobacter baumannii) [µg/mL] | MBC [5] [µg/mL] | MIC [5] [µg/mL] | MIC (Brucella abortus [6]) [µg/mL] | MBC (Pseudomonas aeruginosa) [µg/mL] | MIC (Pseudomonas aeruginosa) [µg/mL] | MBC (Staphylococcus aureus) [µg/mL] | MIC (Staphylococcus aureus) [µg/mL] | MBC (Brucella abortus [7]) [µg/mL] | MBC (Escherichia coli [8]) [µg/mL] | MIC (Escherichia coli [8]) [µg/mL] | MBC (Escherichia coli [9]) [µg/mL] | MIC (Escherichia coli [9]) [µg/mL] | further results
1 | CC[C@H](C)[C@H](NC(=O)[C@H](CCCNC(=N)N)NC(=O)[C@H](CCCNC(=N)N)NC(=O)[C@H](CC(C)C)NC(=O)[C@H](Cc1ccccc1)NC(=O)[C@@H](NC(=O)[C@H](CCCNC(=N)N)NC(=O)[C@H](CCSC)NC(=O)[C@@H](NC(=O)[C@H](CCCCN)NC(=O)[C@H](CCCCN)NC(=O)[C@H](CO)NC(=O)[C@@H](NC(=O)CNC(=O)[C@H](CCCNC(=N)N)NC(=O)[C@H](CC(C)C)NC(=O)[C@@H](NC(=O)[C@@H](N)CCCCN)[C@@H](C)CC)C(C)C)[C@@H](C)CC)[C@@H](C)O)C(=O)N[C@@H](CO)C(=O)N[C@@H](CCCCN)C(=O)N[C@@H](CC(=O)O)C(=O)N[C@H](C(=O)N[C@@H](CC(C)C)C(=O)N[C@H](C(=O)NCC(=O)N[C@@H](CCCCN)C(=O)N[C@@H](CCCCN)C(N)=O)[C@@H](C)O)[C@@H](C)CC (H-KILRGVSKKIMRTFLRRISKDILTGKK-NH2) | 38.4 | 24.8 | Toxic | 4 (≈ 1.26 µM) | 4 (≈ 1.26 µM) | 2 (≈ 0.628 µM) | 2 (≈ 0.628 µM) | 4 (≈ 1.26 µM) | 4 (≈ 1.26 µM) | 2 (≈ 0.628 µM) | 4 (≈ 1.26 µM) | 4 (≈ 1.26 µM) | 128 (≈ 40.2 µM) | 128 (≈ 40.2 µM) | 4 (≈ 1.26 µM) | 2 (≈ 0.628 µM) | 2 (≈ 0.628 µM) | 16 (≈ 5.02 µM) | 8 (≈ 2.51 µM) | –
2 | CC[C@H](C)[C@H](NC(=O)[C@H](CCCNC(=N)N)NC(=O)[C@H](CCCNC(=N)N)NC(=O)[C@H](CC(C)C)NC(=O)[C@H](Cc1ccccc1)NC(=O)[C@@H](NC(=O)[C@H](CCCNC(=N)N)NC(=O)[C@H](CCSC)NC(=O)[C@@H](NC(=O)[C@H](CCCCN)NC(=O)[C@H](CCCCN)NC(=O)[C@H](CS)NC(=O)[C@@H](NC(=O)CNC(=O)[C@H](CCCNC(=N)N)NC(=O)[C@H](CC(C)C)NC(=O)[C@@H](NC(=O)[C@@H](N)CCCCN)[C@@H](C)CC)C(C)C)[C@@H](C)CC)[C@@H](C)O)C(=O)N[C@@H](CO)C(=O)N[C@@H](CCCCN)C(=O)N[C@@H](CC(=O)O)C(=O)N[C@H](C(=O)N[C@@H](CC(C)C)C(=O)N[C@H](C(=O)NCC(=O)N[C@@H](CCCCN)C(=O)N[C@@H](CCCCN)C(=O)O)[C@@H](C)O)[C@@H](C)CC (H-KILRGVCKKIMRTFLRRISKDILTGKK-OH) | 28.7 | 31.6 | Toxic | 16 (≈ 5 µM) | 16 (≈ 5 µM) | 2 (≈ 0.624 µM) | 2 (≈ 0.624 µM) | 4 (≈ 1.25 µM) | 4 (≈ 1.25 µM) | 32 (≈ 9.99 µM) | 32 (≈ 9.99 µM) | 32 (≈ 9.99 µM) | 256 (≈ 79.9 µM) | 256 (≈ 79.9 µM) | 32 (≈ 9.99 µM) | 0.25 (≈ 0.078 µM) | 0.25 (≈ 0.078 µM) | 32 (≈ 9.99 µM) | 16 (≈ 5 µM) | Activity (Escherichia coli [10]): Active; Activity (Escherichia coli [11]): Active
